Calls of active or inactive are those of the source.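 The calls were made as follows: active = mean EC50 at or below 20 µM; inactive = the rest.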

These results are taken from PubChem BioAssay AID588597 (Sanford-Burnham Center for Chemical Genomics, 2011).

This experiment has as its target CHO-CHOP luciferase reporter, luminescence, UPR apoptotic arm. Nature of the experiment: CHOP reporter activation in CHO-CHOP cells, SAR follow-up, counter-screen for UPR adaptive arm activator project, cell-based, luciferase luminescence, set 2 (AID 588597). (The purpose of a counterscreen is to sort out artefacts and off-target activity.)
Consider `O=C(Nc1cccc(Cl)c1)c1cc(-c2ccncc2)nc2ccccc12`, for which the EC50 (usually the midpoint of the concentration-response curve) was > 80 µM (inactive). For the compound `Cc1cccc(NC(=O)c2cc(-c3ccncc3)nc3ccccc23)c1`, the EC50 was > 80 µM (inactive). As for `Cc1cc(Br)cc(NC(=O)c2cc(-c3ccncc3)nc3ccccc23)c1`, the entry is “inactive”; as for `O=C(Nc1ccc(F)cc1)c1cc(-c2ccncc2)nc2ccccc12`, “inactive”; as for `O=C(Nc1cccc(F)c1F)c1cc(-c2ccncc2)nc2ccccc12`, > 80 µM (inactive). As for `O=C(Nc1cccc(F)c1)c1cc(-c2ccncc2)nc2ccccc12`, the figure is > 80 µM (inactive); as for `Cc1ccc(NC(=O)c2cc(-c3ccncc3)nc3ccccc23)cc1`, 8.56 µM; as for `Cc1cc(NC(=O)c2cc(-c3ccncc3)nc3ccccc23)ccc1F`, > 80 µM (inactive). As for `O=C(Nc1cccc(F)c1Br)c1cc(-c2ccncc2)nc2ccccc12`, the figure is > 80 µM (inactive); as for `COc1cccc(NC(=O)c2cc(-c3ccncc3)nc3ccccc23)c1`, > 80 µM (inactive); as for `O=C(Nc1cccc(Br)c1)c1cc(-c2ccncc2)nc2ccccc12`, > 80 µM (inactive).

Consider `Cc1cc(NC(=O)c2cc(-c3ccccc3)nc3ccccc23)ccc1Br`, for which the EC50 was > 80 µM (inactive).

On to `O=C(Nc1ccc(F)c(F)c1)c1cc(-c2ccncc2)nc2ccccc12`, for which the EC50 is > 80 µM (inactive). As for `O=C(Nc1ccc(C(F)(F)F)cc1)c1cc(-c2ccncc2)nc2ccccc12`, the figure is 1.99 µM; as for `O=C(Nc1ccc(Br)c(C(F)(F)F)c1)c1cc(-c2ccncc2)nc2ccccc12`, “inactive”; as for `O=C(Nc1ccccc1Br)c1cc(-c2ccncc2)nc2ccccc12`, > 80 µM (inactive). As for `Cc1cc(NC(=O)c2cc(-c3ccncc3)nc3ccccc23)ccc1Cl`, the figure is > 80 µM (inactive); as for `O=C(Nc1cc(F)ccc1F)c1cc(-c2ccncc2)nc2ccccc12`, “inactive”. For the compound `O=C(Nc1ccc(Cl)cc1)c1cc(-c2ccncc2)nc2ccccc12`, the 50% effective concentration (EC50) is 7.43 µM.

Turning to `O=C(Nc1cccc(C(F)(F)F)c1)c1cc(-c2ccncc2)nc2ccccc12`, the EC50 was > 80 µM (inactive).
